Experimental data: patent publication US20220362396A1, “AMINO-PYRAZINECARBOXAMIDE COMPOUNDS, CONJUGATES, AND USES THEREOF” (Silverback Therapeutics, Inc., priority 2018, published 2022)
One block for each molecule: values may come before it.

How the values were obtained:
[1] = tested on: TGFβ/SMAD Signaling Pathway SBE reporter cell line; test: TGFβ reporter assay, in vitro small molecule screening (luciferase); format: cell-based; conditions: TGFβ stimulation, luminescence
Outline: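 SBE luciferase reporter cells (~0.5×10^6 cells/mL) preincubated with compound 5-6 h at 37 °C in 0.5% FBS MEM, then stimulated with TGFβ (12 ng/mL stock) for 18 h. Luminescence read after luciferase substrate; EC50 from curve fits.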

TGFBR2 = biological target: T1, TGFBR2 (Homo sapiens, UniProt P37173); test: TGFBR2 RBC assay (enzyme inhibition assay, Reaction Biology Corp.); format: biochemical
T1 construct: purchased Reaction Biology Corp
T1 sequence (P37173 23-567): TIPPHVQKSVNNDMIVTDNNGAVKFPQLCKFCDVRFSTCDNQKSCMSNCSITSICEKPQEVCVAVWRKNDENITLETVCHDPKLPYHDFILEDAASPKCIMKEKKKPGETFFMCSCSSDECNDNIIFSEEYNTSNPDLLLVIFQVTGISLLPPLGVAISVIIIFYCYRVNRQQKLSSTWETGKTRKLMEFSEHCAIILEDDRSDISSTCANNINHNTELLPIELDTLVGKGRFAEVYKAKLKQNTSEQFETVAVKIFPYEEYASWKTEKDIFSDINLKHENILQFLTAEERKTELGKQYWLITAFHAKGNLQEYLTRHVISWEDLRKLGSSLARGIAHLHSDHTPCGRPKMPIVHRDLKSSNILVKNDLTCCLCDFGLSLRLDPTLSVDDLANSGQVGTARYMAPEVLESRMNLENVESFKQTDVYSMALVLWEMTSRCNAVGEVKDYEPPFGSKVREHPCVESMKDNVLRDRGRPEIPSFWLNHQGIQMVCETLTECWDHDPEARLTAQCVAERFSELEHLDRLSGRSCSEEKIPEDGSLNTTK
Protocol: Compounds of the disclosure were also assayed by Reaction Biology Corp. using the TGFBR2 RBC assay (enzyme inhibition assay). […] NT refers to not tested.

full length human LRRC15 = biological target: T2, full length human LRRC15 (human, UniProt Q8TF66 22-581); test: cell-based or functional assay
T2 sequence (looked up): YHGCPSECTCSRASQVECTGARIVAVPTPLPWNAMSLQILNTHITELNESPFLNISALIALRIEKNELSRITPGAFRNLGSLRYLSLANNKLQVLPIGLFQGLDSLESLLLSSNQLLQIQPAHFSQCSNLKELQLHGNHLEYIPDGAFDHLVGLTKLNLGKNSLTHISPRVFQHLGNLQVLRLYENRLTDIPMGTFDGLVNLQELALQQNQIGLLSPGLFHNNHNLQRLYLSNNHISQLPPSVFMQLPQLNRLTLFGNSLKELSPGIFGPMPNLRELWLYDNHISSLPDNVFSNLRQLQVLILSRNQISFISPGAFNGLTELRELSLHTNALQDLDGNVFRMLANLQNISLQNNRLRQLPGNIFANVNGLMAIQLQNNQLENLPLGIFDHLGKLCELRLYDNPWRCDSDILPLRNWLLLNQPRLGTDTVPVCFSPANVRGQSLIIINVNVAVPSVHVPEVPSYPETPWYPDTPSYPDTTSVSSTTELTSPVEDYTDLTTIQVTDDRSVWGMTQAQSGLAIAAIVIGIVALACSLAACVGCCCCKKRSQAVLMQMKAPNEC

EC50 [1]: 0.1 to 1 µM | IC50 (TGFBR2): 0.05 to 0.1 µM
Molecule: Nc1ncc(-c2ccc3c(c2)CC(N)CN3)nc1C(=O)Nc1cnccc1N1CCOCC1 (stereo not shown) [Compound 239]

EC50 [1]: > 1 µM | IC50 (TGFBR2): 0.05 to 0.1 µM
Molecule: COC(=O)c1cc(-c2cnc(N)c(C(=O)Nc3cnccc3N3CCOCC3)n2)ccc1OCCCN1C(=O)c2ccccc2C1=O [Compound 240]

EC50 [1]: > 1 µM | IC50 (TGFBR2): 0.1 to 1 µM
Molecule: COC(=O)c1cc(-c2cnc(N)c(C(=O)Nc3cnccc3N3CCOCC3)n2)ccc1OCCCNC(=O)OC(C)(C)C [Compound 241]

EC50 [1]: > 1 µM | IC50 (TGFBR2): 0.05 to 0.1 µM
Molecule: COC(=O)c1cc(-c2cnc(NC(=O)OC(C)(C)C)c(C(=O)Nc3cnccc3N3CCOCC3)n2)ccc1OCCCNC(=O)OC(C)(C)C [Compound 242]

EC50 [1]: 0.1 to 1 µM | IC50 (TGFBR2): 0.1 to 1 µM
Molecule: CC(C)(C)OC(=O)NCC1CCc2cc(-c3cnc(N)c(C(=O)Nc4cnccc4N4CCOCC4)n3)ccc2N1 (stereo not shown) [Compound 243]

EC50 [1]: 0.1 to 1 µM | IC50 (TGFBR2): < 0.05 µM
Molecule: NCC1CCc2cc(-c3cnc(N)c(C(=O)Nc4cnccc4N4CCOCC4)n3)ccc2N1 (stereo not shown) [Compound 244]

EC50 [1]: 0.1 to 1 µM | IC50 (TGFBR2): < 0.05 µM
Molecule: Nc1ncc(-c2ccc3c(c2)CCCC3O)nc1C(=O)Nc1cnccc1N1CCOCC1 (stereo not shown) [Compound 245]

EC50 [1]: 0.1 to 1 µM | IC50 (TGFBR2): < 0.05 µM
Molecule: Nc1ncc(-c2ccc3c(c2)CC(O)CC3)nc1C(=O)Nc1cnccc1N1CCOCC1 (stereo not shown) [Compound 246]

EC50 [1]: 0.05 to 0.1 µM | IC50 (TGFBR2): < 0.05 µM
Molecule: Nc1ncc(-c2ccc3c(c2)CCC3O)nc1C(=O)Nc1cnccc1N1CCOCC1 (stereo not shown) [Compound 247]

EC50 [1]: 0.1 to 1 µM | IC50 (TGFBR2): < 0.05 µM
Molecule: Nc1ncc(-c2ccc3c(c2)CC(O)C3)nc1C(=O)Nc1cnccc1N1CCOCC1 (stereo not shown) [Compound 248]

EC50 [1]: 0.1 to 1 µM | IC50 (TGFBR2): < 0.05 µM
Molecule: Nc1ncc(-c2ccc3c(c2)CCC(O)C3)nc1C(=O)Nc1cnccc1N1CCOCC1 (stereo not shown) [Compound 249]

EC50 [1]: 0.1 to 1 µM | IC50 (TGFBR2): < 0.05 µM
Molecule: Nc1ncc(-c2ccc3c(c2)C(O)CCC3)nc1C(=O)Nc1cnccc1N1CCOCC1 (stereo not shown) [Compound 251]

EC50 [1]: 0.1 to 1 µM | IC50 (TGFBR2): < 0.05 µM
Molecule: Nc1ncc(-c2ccc3ccccc3c2)nc1C(=O)Nc1cnccc1N1CCOCC1 [Compound 252]

EC50 [1]: > 1 µM | IC50 (TGFBR2): 0.1 to 1 µM
Molecule: Nc1ncc(-c2cccc3ccccc23)nc1C(=O)Nc1cnccc1N1CCOCC1 [Compound 253]

EC50 [1]: > 1 µM | IC50 (TGFBR2): > 1 µM
Molecule: CNc1ncc(-c2ccc(OC(C)CN)cc2)nc1C(=O)Nc1cnccc1N1CCOCC1 (stereo not shown) [Compound 254]

EC50 [1]: 0.1 to 1 µM | IC50 (TGFBR2): 0.05 to 0.1 µM
Molecule: CC(CN)Oc1ccc(-c2cnc(N)c(C(=O)Nc3cnccc3N3CCCOCC3)n2)cc1 (stereo not shown) [Compound 256]

EC50 [1]: > 1 µM | IC50 (TGFBR2): < 0.05 µM
Molecule: CC(CN)Oc1ccc(-c2cnc(N)c(C(=O)Nc3cnccc3N3CCCCOCC3)n2)cc1 (stereo not shown) [Compound 257]

EC50 [1]: < 0.05 µM | IC50 (TGFBR2): < 0.05 µM
Molecule: Nc1ncc(-c2ccc(N3CCOCC3)cc2)nc1C(=O)Nc1cnccc1N1CCOCC1 [Compound 258]

EC50 [1]: < 0.05 µM | IC50 (TGFBR2): < 0.05 µM
Molecule: CN(C)c1ccc(-c2cnc(N)c(C(=O)Nc3cnccc3N3CCOCC3)n2)cc1 [Compound 259]

EC50 [1]: < 0.05 µM | IC50 (TGFBR2): < 0.05 µM
Molecule: CNc1ccc(-c2cnc(N)c(C(=O)Nc3cnccc3N3CCOCC3)n2)cc1 [Compound 260]

EC50 [1]: > 1 µM | IC50 (TGFBR2): > 1 µM
Molecule: CC(CN)Oc1ccc(-c2cnc(N)c(C(=O)Nc3cnccc3N3CCCOCCC3)n2)cc1 (stereo not shown) [Compound 261]

EC50 [1]: 0.1 to 1 µM | IC50 (TGFBR2): < 0.05 µM
Molecule: Nc1ncc(-c2ccc(N3CCCC3)cc2)nc1C(=O)Nc1cnccc1N1CCOCC1 [Compound 262]

EC50 [1]: 0.1 to 1 µM | IC50 (TGFBR2): < 0.05 µM
Molecule: COC(=O)[C@@H](N)CCOc1ccc(-c2cnc(N)c(C(=O)Nc3cnccc3N3CCOCC3)n2)cc1 [Compound 263]

EC50 [1]: > 1 µM | IC50 (TGFBR2): < 0.05 µM
Molecule: COC(=O)[C@H](CCOc1ccc(-c2cnc(N)c(C(=O)Nc3cnccc3N3CCOCC3)n2)cc1)NC(=O)OCc1ccccc1 [Compound 264]

EC50 [1]: > 1 µM | IC50 (TGFBR2): < 0.05 µM
Molecule: Nc1ncc(-c2ccc(OCC[C@H](NC(=O)OCc3ccccc3)C(=O)O)cc2)nc1C(=O)Nc1cnccc1N1CCOCC1 [Compound 265]

EC50 [1]: 0.1 to 1 µM | IC50 (TGFBR2): < 0.05 µM
Molecule: CC(C)(C)OC(=O)NCCNc1ccc(-c2cnc(N)c(C(=O)Nc3cnccc3N3CCOCC3)n2)cc1 [Compound 266]

EC50 [1]: 0.1 to 1 µM | IC50 (TGFBR2): < 0.05 µM
Molecule: CN(CCNC(=O)OC(C)(C)C)c1ccc(-c2cnc(N)c(C(=O)Nc3cnccc3N3CCOCC3)n2)cc1 [Compound 267]

EC50 [1]: > 1 µM | IC50 (TGFBR2): < 0.05 µM
Molecule: Nc1ncc(-c2ccc(OCC[C@H](N)C(=O)O)cc2)nc1C(=O)Nc1cnccc1N1CCOCC1 [Compound 268]

EC50 [1]: 0.1 to 1 µM | IC50 (TGFBR2): < 0.05 µM
Molecule: COC(=O)[C@H](N)CCOc1ccc(-c2cnc(N)c(C(=O)Nc3cnccc3N3CCOCC3)n2)cc1 [Compound 269]

EC50 [1]: 0.1 to 1 µM | IC50 (TGFBR2): < 0.05 µM
Molecule: COC(=O)[C@@H](CCOc1ccc(-c2cnc(N)c(C(=O)Nc3cnccc3N3CCOCC3)n2)cc1)NC(=O)OCc1ccccc1 [Compound 270]

EC50 [1]: 0.1 to 1 µM | IC50 (TGFBR2): < 0.05 µM
Molecule: NCCNc1ccc(-c2cnc(N)c(C(=O)Nc3cnccc3N3CCOCC3)n2)cc1 [Compound 271]

EC50 [1]: 0.05 to 0.1 µM | IC50 (TGFBR2): < 0.05 µM
Molecule: CN(CCN)c1ccc(-c2cnc(N)c(C(=O)Nc3cnccc3N3CCOCC3)n2)cc1 [Compound 272]

EC50 [1]: 0.1 to 1 µM | IC50 (TGFBR2): < 0.05 µM
Molecule: CC(C)(C)OC(=O)N[C@H]1CCN(c2ccc(-c3cnc(N)c(C(=O)Nc4cnccc4N4CCOCC4)n3)cc2)C1 [Compound 273]

EC50 [1]: 0.1 to 1 µM | IC50 (TGFBR2): < 0.05 µM
Molecule: CC(C)(C)OC(=O)N[C@@H]1CCN(c2ccc(-c3cnc(N)c(C(=O)Nc4cnccc4N4CCOCC4)n3)cc2)C1 [Compound 274]

EC50 [1]: > 1 µM | IC50 (TGFBR2): 0.05 to 0.1 µM
Molecule: Nc1ncc(-c2ccc(OCC[C@@H](N)C(=O)O)cc2)nc1C(=O)Nc1cnccc1N1CCOCC1 [Compound 275]

EC50 [1]: > 1 µM | IC50 (TGFBR2): < 0.05 µM
Molecule: Nc1ncc(-c2ccc(OCC[C@@H](NC(=O)OCc3ccccc3)C(=O)O)cc2)nc1C(=O)Nc1cnccc1N1CCOCC1 [Compound 276]

EC50 [1]: 0.05 to 0.1 µM | IC50 (TGFBR2): < 0.05 µM
Molecule: Nc1ncc(-c2ccc(N3CC[C@H](N)C3)cc2)nc1C(=O)Nc1cnccc1N1CCOCC1 [Compound 277]

EC50 [1]: 0.05 to 0.1 µM | IC50 (TGFBR2): < 0.05 µM
Molecule: Nc1ncc(-c2ccc(N3CC[C@@H](N)C3)cc2)nc1C(=O)Nc1cnccc1N1CCOCC1 [Compound 278]

EC50 [1]: 0.05 to 0.1 µM | IC50 (TGFBR2): < 0.05 µM
Molecule: Nc1ncc(-c2ccc(N3CCC(N)CC3)cc2)nc1C(=O)Nc1cnccc1N1CCOCC1 [Compound 279]

EC50 [1]: 0.1 to 1 µM | IC50 (TGFBR2): < 0.05 µM
Molecule: CC(C)(C)OC(=O)NC1CCN(c2ccc(-c3cnc(N)c(C(=O)Nc4cnccc4N4CCOCC4)n3)cc2)CC1 [Compound 280]

absolute IC50 of TGFβ1-induced SMAD2 promoter luciferase activity, HEK293 reporter cells expressing human LRRC15 (full length human LRRC15): < 0.01 µM
B1: anti-LRRC15 humanized IgG1 M25 antibody with Fc null domain conjugated to LP1 (antibody, V domains shown)
VH: EVQLVQSGAEVKKPGASVKVSCKASGYKFSSYWIEWVKQAPGQGLEWIGEILPGSDTTNYNEKFKDRATFTSDTSINTAYMELSRLRSDDTAVYYCARDRGNYRAWFGYWGQGTLVTVSS
VL: DIQMTQSPSSLSASVGDRVTITCRASQDISNYLNWYQQKPGGAVKFLIYYTSRLHSGVPSRFSGSGSGTDYTLTISSLQPEDFATYFCQQGEALPWTFGGGTKVEIK
modifications: linker-payload LP1 on interchain disulfide cysteines, average DAR 2.5-4

absolute IC50 of TGFβ1-induced SMAD2 promoter luciferase activity, HEK293 reporter cells expressing human LRRC15 (full length human LRRC15): < 0.01 µM
B2: anti-LRRC15 humanized IgG1 M25 antibody with Fc null domain conjugated to LP10 (antibody, V domains shown)
VH: B1 VH
VL: B1 VL
modifications: linker-payload LP10 on interchain disulfide cysteines, average DAR 2.5-4
